# Reference: patent US20230263822A1, “MODULATION OF FACTOR 11 EXPRESSION” (Ionis Pharmaceuticals, Inc., priority 2008, published 2023)
# Strand notation (5' to 3'): a small letter for the sugar, then the base; units joined by * are phosphorothioate-linked, units joined directly phosphodiester-linked; [ ] holds rarer units or linkages, { } end groups; capitals alone tell only the bases. e = 2'-O-(2-methoxyethyl) (MOE); [5mC] = 5-methylcytosine; d = 2'-deoxy (DNA)
# Test system: human Factor 11 mRNA
# Test: Antisense inhibition of human Factor 11 in HepG2 cells by microwalk gapmers, lipofectin, 75 nM (Example 3)
# Assay type: cell-based
# Method: These gapmers were designed by creating gapmers shifted slightly upstream and downstream (i.e. “microwalk”) of the original gapmers from Table 3. Gapmers were also created with various motifs, e.g. 5-10-5 MOE, 3-14-3 MOE, and 2-13-5 MOE. These gapmers were tested in vitro. Cultured HepG2 cells at a density of 10,000 cells per well were transfected using lipofectin reagent with 75 nM antisense oligonucleotide. After a treatment period of approximately 24 hours, RNA was isolated from the cells and Factor 11 mRNA levels were measured by quantitative real-time PCR. Factor 11 mRNA levels were adjusted according to total RNA content, as measured by RIBOGREEN. Results are presented as percent inhibition of Factor 11, relative to untreated control cells.
# The chimeric antisense oligonucleotides in Table 4 were designed as 5-10-5 MOE, 3-14-3 MOE, and 2-13-5 MOE gapmers. The first listed gapmers in Table 4 are the original gapmers (see Table 3) from which the remaining gapmers were designed via microwalk and are designated by an asterisk. The 5-10-5 gapmers are 20 nucleotides in length, wherein the central gap segment is comprised of 10 2′-deoxynucleotides and is flanked on both sides (in the 5′ and 3′ directions) by wings comprising 5 nucleotides each. The 3-14-3 gapmers are 20 nucleotides in length, wherein the central gap segment is comprised of 14 2′-deoxynucleotides and is flanked on both sides (in the 5′ and 3′ directions) by wings comprising 3 nucleotides each. The 2-13-5 gapmers are 20 nucleotides in length, wherein the central gap segment is comprised of 13 2′-deoxynucleotides. The central gap is flanked on the 5′ end with a wing comprising 2 nucleotides and on the 3′ end with a wing comprising 5 nucleotides. For each of the motifs (5-10-5, 3-14-3, and 2-13-5), each nucleotide in the 5′ wing segment and each nucleotide in the 3′ wing segment has a 2′-MOE modification. The internucleoside linkages throughout each gapmer are phosphorothioate (P=S) linkages. All cytidine residues throughout each gapmer are 5-methyl cytidines. “Target start site” indicates the 5′-most nucleotide to which the gapmer is targeted. “Target stop site” indicates the 3′-most nucleotide to which the gapmer is targeted. Each gapmer listed in Table 4 is targeted to SEQ ID NO: 1 (GENBANK Accession No. NM_000128.3).
# [1] = HepG2, lipofectin, ~24 h, gapmers targeted to nucleobases 656 to 704 of SEQ ID NO: 1
# [2] = HepG2 cells, lipofectin, gapmers targeted to nucleobases 738 to 762 of SEQ ID NO: 1
# [3] = HepG2 cells, lipofectin, gapmers targeted to nucleobases 1018 to 1042 of SEQ ID NO: 1
# [4] = HepG2 cells, lipofectin, gapmers targeted to nucleobases 1062 to 1091 of SEQ ID NO: 1
Substance,% inhibition [1] [%],further results
416806 (antisense eA*eA*eA*eT*eG*dT*d[5mC]*dT*dT*dT*dG*dT*dT*dG*d[5mC]*eA*eA*eG*e[5mC]*eG) [compound 416806],86,
416807 (antisense eT*eA*eA*eA*eT*dG*dT*d[5mC]*dT*dT*dT*dG*dT*dT*dG*e[5mC]*eA*eA*eG*e[5mC]) [compound 416807],51,
416808 (antisense eA*eT*eA*eA*eA*dT*dG*dT*d[5mC]*dT*dT*dT*dG*dT*dT*eG*e[5mC]*eA*eA*eG) [compound 416808],55,
416809 (antisense e[5mC]*eA*eT*eA*eA*dA*dT*dG*dT*d[5mC]*dT*dT*dT*dG*dT*eT*eG*e[5mC]*eA*eA) [compound 416809],86,
416810 (antisense e[5mC]*eA*e[5mC]*eA*eT*dA*dA*dA*dT*dG*dT*d[5mC]*dT*dT*dT*eG*eT*eT*eG*e[5mC]) [compound 416810],68,
416811 (antisense e[5mC]*e[5mC]*eA*e[5mC]*eA*dT*dA*dA*dA*dT*dG*dT*d[5mC]*dT*dT*eT*eG*eT*eT*eG) [compound 416811],84,
416812 (antisense eT*e[5mC]*e[5mC]*eA*e[5mC]*dA*dT*dA*dA*dA*dT*dG*dT*d[5mC]*dT*eT*eT*eG*eT*eT) [compound 416812],59,
416813 (antisense eG*eT*e[5mC]*e[5mC]*eA*d[5mC]*dA*dT*dA*dA*dA*dT*dG*dT*d[5mC]*eT*eT*eT*eG*eT) [compound 416813],70,
416814 (antisense eA*eG*eG*eT*e[5mC]*d[5mC]*dA*d[5mC]*dA*dT*dA*dA*dA*dT*dG*eT*e[5mC]*eT*eT*eT) [compound 416814],83,
416815 (antisense eT*eA*eG*eG*eT*d[5mC]*d[5mC]*dA*d[5mC]*dA*dT*dA*dA*dA*dT*eG*eT*e[5mC]*eT*eT) [compound 416815],63,
416816 (antisense e[5mC]*eT*eA*eG*eG*dT*d[5mC]*d[5mC]*dA*d[5mC]*dA*dT*dA*dA*dA*eT*eG*eT*e[5mC]*eT) [compound 416816],79,
416817 (antisense eT*e[5mC]*eT*eA*eG*dG*dT*d[5mC]*d[5mC]*dA*d[5mC]*dA*dT*dA*dA*eA*eT*eG*eT*e[5mC]) [compound 416817],74,
416818 (antisense eT*eG*eT*e[5mC]*eT*dA*dG*dG*dT*d[5mC]*d[5mC]*dA*d[5mC]*dA*dT*eA*eA*eA*eT*eG) [compound 416818],76,
416819 (antisense eA*eT*eG*eT*e[5mC]*dT*dA*dG*dG*dT*d[5mC]*d[5mC]*dA*d[5mC]*dA*eT*eA*eA*eA*eT) [compound 416819],56,
416820 (antisense e[5mC]*eA*eT*eG*eT*d[5mC]*dT*dA*dG*dG*dT*d[5mC]*d[5mC]*dA*d[5mC]*eA*eT*eA*eA*eA) [compound 416820],77,
416821 (antisense eT*e[5mC]*eA*eT*eG*dT*d[5mC]*dT*dA*dG*dG*dT*d[5mC]*d[5mC]*dA*e[5mC]*eA*eT*eA*eA) [compound 416821],84,
416822 (antisense e[5mC]*eT*eT*e[5mC]*eA*dT*dG*dT*d[5mC]*dT*dA*dG*dG*dT*d[5mC]*e[5mC]*eA*e[5mC]*eA*eT) [compound 416822],76,
416823 (antisense e[5mC]*e[5mC]*eT*eT*e[5mC]*dA*dT*dG*dT*d[5mC]*dT*dA*dG*dG*dT*e[5mC]*e[5mC]*eA*e[5mC]*eA) [compound 416823],77,
416824 (antisense e[5mC]*e[5mC]*e[5mC]*eT*eT*d[5mC]*dA*dT*dG*dT*d[5mC]*dT*dA*dG*dG*eT*e[5mC]*e[5mC]*eA*e[5mC]) [compound 416824],64,
416828 (antisense eT*eT*eA*eT*eG*d[5mC]*d[5mC]*d[5mC]*dT*dT*d[5mC]*dA*dT*dG*dT*e[5mC]*eT*eA*eG*eG) [compound 416828],87,

Substance,% inhibition [1] [%],further results
416829 (antisense eT*eT*eT*eA*eT*dG*d[5mC]*d[5mC]*d[5mC]*dT*dT*d[5mC]*dA*dT*dG*eT*e[5mC]*eT*eA*eG) [compound 416829],72,
416830 (antisense eT*e[5mC]*e[5mC]*eG*eT*dG*d[5mC]*dA*dT*d[5mC]*dT*dT*dT*d[5mC]*dT*eT*eG*eG*e[5mC]*eA) [compound 416830],,% inhibition [2]: 81%
416831 (antisense eA*eT*e[5mC]*e[5mC]*eG*dT*dG*d[5mC]*dA*dT*d[5mC]*dT*dT*dT*d[5mC]*eT*eT*eG*eG*e[5mC]) [compound 416831],,% inhibition [2]: 91%
416832 (antisense e[5mC]*eA*eT*e[5mC]*e[5mC]*dG*dT*dG*d[5mC]*dA*dT*d[5mC]*dT*dT*dT*e[5mC]*eT*eT*eG*eG) [compound 416832],,% inhibition [2]: 79%
416833 (antisense eT*e[5mC]*eA*eT*e[5mC]*d[5mC]*dG*dT*dG*d[5mC]*dA*dT*d[5mC]*dT*dT*eT*e[5mC]*eT*eT*eG) [compound 416833],,% inhibition [2]: 65%
416834 (antisense eG*eT*e[5mC]*eA*eT*d[5mC]*d[5mC]*dG*dT*dG*d[5mC]*dA*dT*d[5mC]*dT*eT*eT*e[5mC]*eT*eT) [compound 416834],,% inhibition [2]: 58%
416835 (antisense eA*e[5mC]*e[5mC]*eG*eG*dG*dA*dT*dG*dA*dT*dG*dA*dG*dT*eG*e[5mC]*eA*eG*eA) [compound 416835],,% inhibition [3]: 83%
416836 (antisense eA*eA*e[5mC]*e[5mC]*eG*dG*dG*dA*dT*dG*dA*dT*dG*dA*dG*eT*eG*e[5mC]*eA*eG) [compound 416836],,% inhibition [3]: 89%
416837 (antisense e[5mC]*eA*eA*e[5mC]*e[5mC]*dG*dG*dG*dA*dT*dG*dA*dT*dG*dA*eG*eT*eG*e[5mC]*eA) [compound 416837],,% inhibition [3]: 90%
416839 (antisense eG*eA*eT*eT*e[5mC]*dT*dT*dT*dG*dG*dG*d[5mC]*d[5mC]*dA*dT*eT*e[5mC]*e[5mC]*eT*eG) [compound 416839],,% inhibition [4]: 89%
416840 (antisense eA*eG*eA*eT*eT*d[5mC]*dT*dT*dT*dG*dG*dG*d[5mC]*d[5mC]*dA*eT*eT*e[5mC]*e[5mC]*eT) [compound 416840],,% inhibition [4]: 85%
416841 (antisense eG*eA*eG*eA*eT*dT*d[5mC]*dT*dT*dT*dG*dG*dG*d[5mC]*d[5mC]*eA*eT*eT*e[5mC]*e[5mC]) [compound 416841],,% inhibition [4]: 87%
416843 (antisense eT*eT*eT*eG*eA*dG*dA*dT*dT*d[5mC]*dT*dT*dT*dG*dG*eG*e[5mC]*e[5mC]*eA*eT) [compound 416843],,% inhibition [4]: 89%
416844 (antisense e[5mC]*eT*eT*eT*eG*dA*dG*dA*dT*dT*d[5mC]*dT*dT*dT*dG*eG*eG*e[5mC]*e[5mC]*eA) [compound 416844],,% inhibition [4]: 90%
416845 (antisense eT*e[5mC]*eT*eT*eT*dG*dA*dG*dA*dT*dT*d[5mC]*dT*dT*dT*eG*eG*eG*e[5mC]*e[5mC]) [compound 416845],,% inhibition [4]: 86%
416846 (antisense eT*eT*e[5mC]*eT*eT*dT*dG*dA*dG*dA*dT*dT*d[5mC]*dT*dT*eT*eG*eG*eG*e[5mC]) [compound 416846],,% inhibition [4]: 72%
416847 (antisense eT*eT*eT*e[5mC]*eT*dT*dT*dG*dA*dG*dA*dT*dT*d[5mC]*dT*eT*eT*eG*eG*eG) [compound 416847],,% inhibition [4]: 50%
416868 (antisense eA*eA*eT*dG*dT*d[5mC]*dT*dT*dT*dG*dT*dT*dG*d[5mC]*dA*dA*dG*e[5mC]*eG*e[5mC]) [compound 416868],93,
416869 (antisense eA*eA*eA*dT*dG*dT*d[5mC]*dT*dT*dT*dG*dT*dT*dG*d[5mC]*dA*dA*eG*e[5mC]*eG) [compound 416869],81,
